“Also recorded” adds a separate entry of the source.
Columns and labels:
[1] = tested on: zonula occludens-1 (ZO-1), tight junctions between bEnd3 cells; test: Immunofluorescence of ZO-1 (tight junctions) in bEnd3 cells; type: cell-based, mouse; conditions: 90 min
Experimental: Immunofluorescence of zonula occludens-1 (ZO-1) was performed to determine the in vitro effect of the compounds on tight junctions (TJs) between bEnd3 cells. The experiment was conducted simultaneously with the permeability assay. Briefly, cells were seeded on cover slides in 24-well plates at a concentration of 3.5 × 10^4 cells/well and incubated for 3–4 d at 37 °C and 5% CO2 in a humidified atmosphere, until they reached 100% confluence. The cells were then treated with 10 and 50 µM concentrations of the compounds for 90 min. After the allotted treatment time, the cells were fixed with ice-cold acetone at −20 °C for 10 min; blocked with 1% bovine serum albumin (BSA, cat. no. 9048-46-8, Acros Organics, Thermo Fischer Scientific, Waltham, MA, USA) in PBS, containing 0.1% Tween® 20 (cat. no. P1379, Sigma-Aldrich Co. LLC, St. Louis, MO, USA); and labeled with anti-ZO-1 (rabbit polyclonal antibody, 1:500, cat. no. ab96587, Abcam, Cambridge, UK) at 4 °C overnight. The slides were then incubated with a secondary donkey anti-rabbit Alexa Fluor™ 555 antibody (1:1000, cat. no. 4413S, Molecular Probes, Thermo Fischer Scientific, Waltham, MA, USA) for 1 h at room temperature (RT) in the dark. […] Fluorescence microscopy was performed on a spinning disk confocal microscope system (Andor Dragonfly 505, Oxford Instruments, Abingdon, UK) with 60 × oil NA 1.4 objective, with em./ex. = 561/617 nm for ZO-1 and 405/445 nm for DAPI. The obtained data were analyzed with Fiji and compiled via the FigureJ plugin [46].
To further explore the neuroprotective effect of the compounds, we tested their ability to influence the BBB and its permeability, utilizing a static BBB model with brain microvascular endothelial cell line bEnd3 [36], as it would be essential for the compounds to pass the BBB and protect the neuronal cells. […] Here, we determined any changes in the permeability of the BBB by imitating an endothelial barrier via a static BBB model of bEnd3 cells (Figure 11a,c,e). […]

[2] = Stability by UV-vis measurements at different pH; type: physicochemical; conditions: 50 µM, pH 2, 4.5, 7.4 and 8.4, after 1, 2, 3 and 24 h
Experimental: The stability of the compounds was also considered a potential issue. Therefore, selected compounds (3a, 3d, 5d, and 5e at a concentration of 50 µM) were studied by UV-vis measurements under different pH conditions, including pH 2, 4.5, 7.4, and 8.4, to represent different physiological (gastric, intestinal, etc.) conditions.

SH-SY5Y cells = test: H2O2-induced oxidative stress model in SH-SY5Y cells; type: cell-based, human; conditions: H2O2 1 mM 15 min
Experimental: The SH-SY5Y cells were seeded in 96-well plates at a density of 3.5 × 10^4/well in 100 μL of RPMI supplemented with FBS for 24 h. Then, the cell medium was aspirated, and the cells were treated with different concentrations of the compounds—1, 10, and 50 µM for 90 min. Afterwards, the SH-SY5Y cells were washed with PBS and were exposed to hydrogen peroxide (H2O2) (1 mM in PBS for 15 min) to induce oxidative stress. All well contents were replaced by fresh culture medium and incubated for 24 h. MTT assay was used to evaluate the amount of attached viable cells. Negative controls (cells without H2O2 treatment) were considered as 100% protection and H2O2-treated cells as 0% protection.
To evaluate the possible neuroprotective effects of the compounds, the SH-SY5Y cells were pre-treated with different concentrations (1, 10, 50 µM) for 90 min and then exposed to H2O2 (1 mM) for 15 min. The cell viability of all compounds was measured to verify their protective effect against the toxicity of hydrogen peroxide.

[3] = tested on: isolated rat-brain synaptosomes; test: Level of reduced glutathione (GSH) in isolated synaptosomes, substances administered alone; conditions: 100 µM
Experimental: Preparation of the synaptosomes was carried out by multiple centrifugations using the Percoll gradient. Homogenization of the brains was performed in 10 volumes of cold buffer 1, which contained 5 mM HEPES and 0.32 M sucrose (pH = 7.4), followed by centrifugation at different speeds. For preparation of the gradient, the synaptosomes were isolated by Percoll reagent. Synaptosomes were resuspended and incubated in buffer 2, which contained 290 mM NaCl, 0.95 mM MgCl2x6H2O, 10 mM KCl, 2.4 mM CaCl2xH2O, 2.1 mM NaH2PO4, 44 mM HEPES, and 13 mM D-glucose. Incubations were performed in a 5% CO2 + 95% O2 atmosphere. The method of Lowry et al., using bovine serum albumin as a standard content, was applied for determination of synaptosomal protein [51].
After the treatment with the tested compounds, the glutathione levels of the synaptosomes were determined with an Ellman reagent (DTNB). The GSH levels were evaluated based on the synaptosomal sediment, precipitated with 5% TCA, and centrifuged for 10 min at 4000× g. GSH levels in the supernatant were measured spectrophotometrically at 412 nm by a Spectro UV-vis split spectrophotometer (LaboMed. Inc., Los Angelis, California, USA). […]

COc1ccc(C=NNC(=O)c2cc3cc(OC)ccc3[nH]2)c(O)c1 [Compound 5e, N′-(2-Hydroxy-4-methoxybenzylidene)-5-methoxy-1H-indole-2-carbohydrazide]
effect on tight junctions (ZO-1 distribution) ([1]; 10 and 50 µM): appears to disrupt TJs
stability (UV-vis spectra over time) [2]: stable over time; also recorded: very good stability

COc1ccc2[nH]c(C(=O)NN=Cc3cccc(O)c3O)cc2c1 [Compound 5a, N′-(2,3-Dihydroxybenzylidene)-5-methoxy-1H-indole-2-carbohydrazide]
effect on tight junctions (ZO-1 distribution) ([1]; 10 µM): without affecting the TJs

COc1ccc2[nH]c(C(=O)NN=Cc3ccc(O)c(O)c3)cc2c1 [Compound 5b, N′-(3,4-Dihydroxybenzylidene)-5-methoxy-1H-indole-2-carbohydrazide]
effect on tight junctions (ZO-1 distribution) ([1]; 10 µM): without affecting the TJs

COc1ccc2[nH]cc(CCNC(C)=O)c2c1 [Melatonin]
protective effect: increased cell viability of SH-SY5Y vs. H2O2 group (SH-SY5Y cells; 1 µM pre-treatment 90 min): 19%
protective effect: increased cell viability of SH-SY5Y vs. H2O2 group (SH-SY5Y cells; 10 µM pre-treatment 90 min): 42%
protective effect: increased cell viability of SH-SY5Y vs. H2O2 group (SH-SY5Y cells; 50 µM pre-treatment 90 min): 64%
reduction of GSH level vs. non-treated synaptosomes [3]: did not decrease

COc1cc(C=NNC(=O)CCc2c[nH]c3ccccc23)ccc1O [Compound 3d, N′-(4-Hydroxy-3-methoxybenzylidene)-3-(1H-indol-3-yl)propanehydrazide]
stability (UV-vis spectra over time) [2]: stable over time

COc1cc(C=NNC(=O)CCc2c[nH]c3ccccc23)cc(OC)c1O [Compound 3f, N′-(4-Hydroxy-3,5-dimethoxybenzylidene)-3-(1H-indol-3-yl)propanehydrazide]
reduction of GSH level vs. non-treated synaptosomes [3]: 40%

— paper PMC10135567, “New Indole-3-Propionic Acid and 5-Methoxy-Indole Carboxylic Acid Derived Hydrazone Hybrids as Multifunctional Neuroprotectors” (Antioxidants, 2023)
